The record followed here is patent publication US11917959B2, “Multi-ear system to enhance monocot plant yield” (Monsanto Technology LLC, priority 2015, dated 2024).

Assay [1] relates to DH0 maize plants, Germplasm A. As to the kind of experiment: Doubling efficiency after co-dominant ear induction (Example 2). Format: in vivo. The settings on record: for DE04 doubling efficiency / DE20 doubling efficiency / DE30 doubling efficiency / DE50 doubling efficiency: Germplasm A DH0, 60 mL 2.5% PBZ. The source says: An F1 hybrid-derived haploid induction population derived from female inbred maize plant Germplasm A was germinated in soil and tended in standard greenhouse maize growing conditions for approximately seven days. Seedlings were then subjected to a bulk colchicine-based chromosome doubling treatment as described above. Following treatment, seedlings were transplanted into pots and tended in a greenhouse at standard greenhouse maize growing conditions to recover.
Twenty-nine days after the colchicine doubling treatment, 77 of the DH0 seedlings were subjected to a co-dominant ear induction treatment comprising the addition of 60 mL of 2.5% PBZ (v/v) in water, which was poured into the soil surrounding the roots of each plant. The seedlings were then tended in standard greenhouse maize growing conditions until they flowered, at which time each plant that produced pollen was self-pollinated. After approximately 3-4 weeks, ears were harvested and the kernels (DH1 seeds) that formed on the treated DH0 plants were counted to determine doubling efficiencies.
Doubling efficiencies (DE) were calculated under four different constraints, depending on the minimum number of kernels an ear had to produce in order to even be included in the calculation. DE04 represents the portion of all the doubled DH0 plants that produced a total of at least four seeds when all ears were considered. DE20 represents the portion of all the doubled DH0 plants that produced a total of at least 20 kernels when all ears were considered. Similarly, DE30 represents the portion of doubled DH0 plants that produced a total of at least 30 kernels when all ears were considered, and DE50 represents the portion of doubled DH0 plants that produced a total of at least 50 kernels when all ears were considered.
Furthermore, the above doubling efficiencies were calculated once by considering only the kernels that formed on the primary ear of each plant (Ear1), once by considering only the kernels that formed on the primary and secondary ear of each plant (Ear2), once by considering only the kernels that formed on the primary, secondary, and tertiary ear of each plant (Ear3), and finally by considering all the kernels that formed on all the ears of each plant (Earall).

Assay [2] has as its system maize inbred lines Germplasm A and LH244. Description: Co-dominant ear induction in diploid maize inbreds (Example 5). Type of assay: in vivo. The settings on record: for Ave. Ears Per Plant / Ave. Total Kernels Per Plant: Treated. As to the method: Seeds of maize inbred lines Germplasm A and LH244 were planted in soil, germinated, and then transplanted to 10-inch pots after approximately one week, one seedling per pot. The plants were subjected to a co-dominant ear induction treatment at the V8 stage comprising drenching the soil surrounding the roots of each plant with 50 mL of a 2.5% PBZ solution (v/v; 0.4% of active ingredient). The plants were tended in a greenhouse until sexual maturity, then they were self-pollinated. When seed set had completed, the number of co-dominant ears, and the total number of kernels, produced by each plant were counted. Control plants for each germplasm were processed in the same way as the treated groups, except that the control plants were not subjected to the co-dominant ear induction treatment.

The mark [3] stands for this setting: Ear 2 (primary and secondary ear).
The mark [4] stands for this setting: Ear 3 (primary, secondary, tertiary ear).
Where [5] appears, read: Germplasm A, 50 mL 2.5% PBZ at V8.

Structures are written as SMILES.

In assay [1] (Ear 1 only), `CC(C)(C)[C@@H](O)[C@@H](Cc1ccc(Cl)cc1)n1cncn1` (relative stereo) [PBZ, (±)-(R*, R*)-beta-((4-chlorophenyl)methyl)-alpha-(1,1,-dimethylethyl)-1H-1,2,4,-triazole-1-ethanol] displayed a DE04 doubling efficiency of 71%, a DE20 doubling efficiency of 37%, a DE30 doubling efficiency of 26% and a DE50 doubling efficiency of 23%. For the same compound, the “reduction in DE between DE04 and DE20” value in assay [1] (Ear2) worked out at 22%. In assay [1] (setting [3]), the DE04 doubling efficiency was 76%, the DE20 doubling efficiency amounted to 59%, the DE30 doubling efficiency is recorded as 47% and the DE50 doubling efficiency was found to be 36%. Also, in assay [1] (setting [4]), the DE04 doubling efficiency worked out at 76%, the DE20 doubling efficiency is on record as 65%, the DE30 doubling efficiency is 58% and the DE50 doubling efficiency was 50%. In assay [1] (Ear All), this compound had a DE04 doubling efficiency of 76%, a DE20 doubling efficiency of 68%, a DE30 doubling efficiency of 58% and a DE50 doubling efficiency of 52%. In assay [2] (setting [5]), the “Ave. Ears Per Plant” value came out at 8 and the “Ave. Total Kernels Per Plant” value turned out to be 1677. Besides, in assay [2] (LH244, 50 mL 2.5% PBZ at V8), the “Ave. Ears Per Plant” value is recorded as 5.1 and the “Ave. Total Kernels Per Plant” value was 1126. Moreover, in assay [2] (both germplasms), the “average total kernels per plant and average ears per plant, treated vs control” value was “more than doubling”.
